Assay: gradient 5% acetonitrile 3 min, to 50% in 2 min, to 85% in 15 min, held 3 min, 100 µL/min
Details: column: Zorbax Extend-C18 2.1 x 50 mm; eluents: water / acetonitrile, 0.1% formic acid
How it was run: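 The system's dead and dwell volumes were 40 μL and 900 μL, with a Zorbax Extend-C18 column (2.1 × 50 mm, 1.8 μm) run at 100 μL/min in water and acetonitrile containing 0.1% formic acid each. Pure standards were analyzed in mixtures of ~100 molecules by HPLC–quadrupole time-of-flight mass spectrometry in positive and negative ionization mode. Retention time was assigned from computationally picked, manually inspected adduct peaks.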

Row | RP-LC retention time [s] | SMILES
1 | 669 | Cc1cccc(N2CCN(CC(O)c3ccc4c(c3)OCO4)CC2)c1 (stereo not drawn)
2 | 858 | CC1Oc2ccc(S(=O)(=O)N3CCC(C(=O)N(C)C4CCCCC4)CC3)cc2NC1=O (stereo not drawn)
3 | 847 | CN1C(=O)c2ccccc2Oc2ccc(C(=O)NCc3cccs3)cc21
4 | 609 | COC(=O)C1=C(CN2CCOCC2)NC(=O)NC1c1ccc(C)cc1C (stereo not drawn)
5 | 1010 | O=C(Nc1ccc(F)cc1Cl)c1cc2n(n1)CCCC2
6 | 698 | CCNC(=O)C1CCCN(c2nc3ncn(CC(=O)Nc4ccc(F)c(Cl)c4)c(=O)c3s2)C1 (stereo not drawn)
7 | 869 | O=C(CSc1nnc2c3sc(N4CCCC4)nc3ncn12)Nc1ccc(F)cc1Cl
8 | 659 | COCc1nc2cccnc2n1C1CCN(C(=O)Nc2cc(OC)c(OC)c(OC)c2)CC1
9 | 942 | COc1cc(C(=O)Nc2nnc(SCc3nnc(-c4ccccc4C)o3)s2)cc(OC)c1OC
10 | 733 | O=S(=O)(c1ccccc1)N1CCC(N2C[C@H](Oc3ccccc3)[C@@H]2c2ccncc2)CC1
11 | 687 | O=C(NCc1ccco1)C1CC(=O)N(c2ccc3c(c2)CCN3C(=O)C2CC2)C1 (stereo not drawn)
12 | 767 | COc1ccc(OC)c(NC(=O)c2cn3c(n2)CSCC3)c1
13 | 756 | Cc1nnc(-c2ccc3ccn(CC(=O)NCc4ccc5c(c4)OCO5)c3c2)o1
14 | 556 | Cn1nc(C2CCCNC2)n(Cc2ccccc2)c1=O (stereo not drawn)
15 | 942 | COc1ccccc1-c1noc(C2CCCN2C(=O)Nc2ccc(F)c(Cl)c2)n1 (stereo not drawn)
16 | 655 | CCCn1cnc2ccc(-c3noc(CNC(=O)c4ccccc4)n3)cc21
17 | 861 | CCN1c2ccc(F)cc2C(=O)NC12CCN(C(=O)c1ccc(C)cc1C)CC2
18 | 767 | CCN1CCC(O)(/C=C/c2ccc(C)cc2)C(C(=O)/C=C/c2ccc(C)cc2)C1 (stereo not drawn)
19 | 795 | O=C(C1CC1)N1CCc2sc(S(=O)(=O)NCc3ccccc3)cc2C1
20 | 848 | CCN1C(=O)Cc2cc(C(=O)N3CCN(c4ccccc4F)CC3)ccc21
21 | 691 | CC(C)c1cnc2c(c1SCc1cccnc1)c(=O)n(C)c(=O)n2C
22 | 791 | Cc1noc(-c2nn(C)c3c2CN(C(=O)COc2ccc(Cl)cc2)CC3)n1

Row | RP-LC retention time [s] | SMILES
23 | 641 | O=C(c1ccc(Cl)c(N2C(=O)CCS2(=O)=O)c1)N1CCN(c2ncccn2)CC1
24 | 663 | CSc1ccc(CNC(=O)c2cn3c(n2)COCC3)cc1
25 | 639 | COc1ccc(C(=O)N2CC(N3CC(C(=O)N4CCCC4)CC3=O)C2)cc1F (stereo not drawn)
26 | 690 | Cc1nn2c(S(=O)(=O)NCC3CC3)c(C)nc2s1
27 | 786 | COc1ccc(CSc2nccc3c2ccn3CC(=O)N2CCN(c3ccccc3)CC2)cc1
28 | 674 | NC(=O)c1ccc2c(c1)n(Cc1ccccc1)c(=O)c1ccnn12
29 | 844 | COc1ccccc1-n1ccn2cc(-c3ccc(F)cc3F)nc2c1=O
30 | 732 | Cn1cc(S(=O)(=O)N2CCC(C(=O)NC3CCCC3)CC2)cc1C(=O)N1CCCCC1
31 | 738 | Cc1cc2[nH]c(C(=O)Nc3ccc(Cl)cc3C)c(CN3CCOCC3)c2s1
32 | 713 | CC(C(=O)NCCN1CCCCCC1)n1c(=O)c(C(F)(F)F)nc2ccccc21 (stereo not drawn)
33 | 762 | COc1ccccc1-c1noc(C2CCCN2C(=O)Nc2ccc3c(c2)OCCO3)n1 (stereo not drawn)
34 | 1120 | O=C1COc2ccccc2N1Cc1nc(-c2ccc(Cl)c(F)c2)no1
35 | 1100 | O=C(NC1(c2nc(-c3cccnc3)no2)CCCCC1)c1nccc2ccccc12
36 | 729 | CCN1CCn2cc(S(=O)(=O)Nc3cccc(C)c3C)cc2C1=O
37 | 713 | Cc1nc(-n2cccc2)sc1C(=O)N1CCN(C(=O)c2ccco2)CC1
38 | 703 | COCCNC(=O)c1ccc(CNS(=O)(=O)c2cc(C)ccc2C)cc1
39 | 804 | Cc1ccc(C)c2sc(NC(=O)CN(C)S(C)(=O)=O)nc12
40 | 1120 | CCOc1ccc(CC(=O)N2CCCC2c2nc(-c3cccc(C)c3)no2)cc1 (stereo not drawn)
41 | 895 | COc1ccc(Cl)cc1NC(=O)N1CCC2(CC1)NC(=O)c1cc(C)ccc1N2C
42 | 791 | CCC(=O)Nc1ccc(-n2cnc(C(=O)NCc3ccc(C)c(C)c3)c2)nc1
43 | 765 | O=C(N[C@H]1C[C@@H]2C[C@H]1N(C(=O)NCc1cccc(F)c1)C2)c1cccs1
44 | 708 | Cn1nnc2cc(-c3noc(CNC(=O)c4ccccc4)n3)ccc21

Row | RP-LC retention time [s] | SMILES
45 | 656 | Cc1cc(C)c2c(N3CCCC3)nc(C(=O)Nc3ccc4c(c3)OCO4)nc2n1
46 | 1260 | Cc1cc(C)n(-c2nc(C)c(C(=O)Nc3cccc(C(F)(F)F)c3)s2)n1
47 | 1140 | Cc1ccc(C)c(NS(=O)(=O)c2c(C)sc(C)c2-c2n[nH]c(C)c2C)c1
48 | 895 | COc1ccccc1-c1nnc(-c2ccc(C)c(S(=O)(=O)N(C)C)c2)o1
49 | 940 | CCCn1ccc2sc(C)c(C(=O)NCc3cc(F)ccc3F)c2c1=O
50 | 668 | CCN1CCC2(CC1)N=C(c1ccc(C)cc1C)CC(c1cc(Cl)ccc1O)N2 (stereo not drawn)
51 | 658 | COc1cc(CCC(=O)O)on1
52 | 1020 | CCc1cccc(C)c1NC(=O)C1CCCN(S(=O)(=O)c2ccc(OC)c(Cl)c2)C1 (stereo not drawn)
53 | 597 | CCN(CCNS(=O)(=O)c1ccc2[nH]c(=O)ccc2c1)Cc1ccccc1
54 | 777 | Cc1ccc(CNC(=O)C2CCCN2S(=O)(=O)c2cc3c(cc2C)NC(=O)CO3)cc1 (stereo not drawn)
55 | 589 | CC(C)CNC(=O)C1(CCO)CCN(Cc2ccccc2)C1 (stereo not drawn)
56 | 1090 | COc1ccc(CN2C=C(C(=O)OCc3nc(-c4cccs4)no3)C(C)=NS2(=O)=O)cc1
57 | 1150 | Cn1nccc1-c1cccc(-c2noc(C3(c4ccccc4)CC3)n2)c1
58 | 775 | O=C(NCCc1c[nH]c2ccccc12)C1CCCN(c2nn3c(=O)c4c(nc3s2)CCCC4)C1 (stereo not drawn)
59 | 756 | Cc1cc(Cl)ccc1NC(=O)N(C)CC1CCOC1 (stereo not drawn)
60 | 712 | COc1ccc(NC(=O)C2CCCN(c3cnc4nc(C)c(C)nc4c3)C2)c(C)c1 (stereo not drawn)
61 | 740 | Cc1cc(C)cc(NC(=O)N2CCC(N3CCN(Cc4ccccc4)C(=O)C3=O)CC2)c1
62 | 838 | COc1cc(NC(=O)Nc2cccc(CNC(=O)O[C@H]3CCOC3)c2)ccc1-c1cnco1
63 | 894 | COc1cc(NC(=O)CN2C(=O)C(O)(c3cccc(F)c3)c3ccccc32)cc(OC)c1 (stereo not drawn)
64 | 760 | O=C1NC2(CCN(C(=O)c3cc(F)cc(F)c3)CC2)Nc2c(Cl)cccc21
65 | 680 | Cc1nn(C(C)C(=O)NCCCN2CCCCC2)c(=O)c2c1sc1ccccc12 (stereo not drawn)
66 | 632 | Cc1cc(N2CCN(C)CC2)nc2ccc(NC(=S)NC3CCCc4ccccc43)cc12 (stereo not drawn)

Row | RP-LC retention time [s] | SMILES
67 | 585 | CCOc1ccc(S(=O)(=O)N(CC(=O)N2CCNCC2)CC2CCCN2CC)cc1 (stereo not drawn)
68 | 667 | Cc1noc([C@@H]2CN(S(=O)(=O)c3c(C)noc3C)C[C@H]2C(N)=O)n1
69 | 849 | Cc1cc2c(cc1CNC(=O)Cn1c(C(F)(F)F)nc3ccccc31)OCCCO2
70 | 813 | COc1ccc(NC(=O)NCC23CCC=C2N(CC2CC2)C(=O)CC3)cc1 (stereo not drawn)
71 | 1060 | Cc1c(-c2noc(-c3ccc(F)cc3)n2)nnn1Cc1ccccc1
72 | 646 | CCN1CCN(CCCNc2ccc(-c3nc(-c4ccc(C)cc4)no3)cn2)CC1
73 | 882 | Clc1ccc2nc(N3CCOCC3)nc(-c3ccccc3)c2c1
74 | 1110 | CSc1cccc2sc(N(Cc3ccco3)C(=O)c3ccc(C#N)cc3)nc12
75 | 762 | Cc1oc(C2CCN(S(=O)(=O)c3ccc(C#N)cc3)CC2)nc1C(=O)N(C)C
76 | 966 | COc1ccc(-c2nnc(-c3ccc(C)c(S(=O)(=O)N(C)C)c3)o2)cc1
77 | 687 | Cc1cc(N(CCO)CCO)n2nc(-c3ccc(C(C)(C)C)cc3)nc2n1
78 | 956 | COCCCNC(=O)c1ccc(Oc2nccnc2N2CCC(C)CC2)cc1
79 | 986 | Cc1ccc(-c2nnc(SCC(=O)N3CCC(C)CC3)o2)cc1
80 | 721 | COc1ccc2c(c1)c(CN1CCCCCCN(C)C(=O)[C@@H]3CCC[C@@H]31)cn2C
81 | 729 | N#CC1(C(=O)NCc2nc(-c3ccccc3)no2)CC1
82 | 646 | Cc1noc(-c2ccc(=O)n(C(C)C(=O)NCc3cccs3)c2)n1 (stereo not drawn)
83 | 861 | O=C(NCCC1CCN(C(=O)Nc2cc(F)cc(F)c2)CC1)c1cccs1
84 | 1210 | Cn1c(C(=O)NC2CCCCC2)cc2c(-c3cccs3)nn(-c3ccccc3)c21
85 | 708 | O=C(CN1C(=O)NC2(CCCCC2)C1=O)Nc1ccc2c(c1)OCCO2
86 | 747 | Cc1c(Cl)cccc1NC(=O)N1CCCC(Cn2cnc3cccnc32)C1 (stereo not drawn)
87 | 626 | CCNc1nc(C)cc(N2CCN(C(=O)Nc3cc(OC)ccc3OC)CC2)n1

Row | SMILES | RP-LC retention time [s]
88 | Cc1cc(C)n(-c2ccnc(N3CCC(C(=O)N4CCC5(CC4)OCCO5)CC3)n2)n1 | 712

Source: the METLIN SMRT retention time set (Domingo-Almenara et al. 2019)
